Source: publication PMC3427785 (The Journal of organic chemistry, 2012)
Like-named read-outs stand apart in the source and are kept apart here.

Tests used:
[1] = system: 1A9-PTX22; assay: Antiproliferative activity; format: cell-based, human; conditions: read-out: GI50, PTX22; paclitaxel-resistant ovarian 1A9-PTX22; four days
[2] = system: HEL cells; assay: HEL cell growth inhibition; format: cell-based, human; conditions: read-out: HEL cell effects, cell growth (IC50); concentration required to reduce cell growth by 50%
[3] = system: colorectal carcinoma HCT116 cells; assay: Antiproliferative activity; format: cell-based, human; conditions: read-out: GI50, HCT116, four days
[4] = system: human ovarian cancer 1A9 cells; assay: Antiproliferative activity; format: cell-based; conditions: read-out: GI50, 1A9; ovarian 1A9; four days
[5] = system: 1A9-PTX10; assay: Antiproliferative activity; format: cell-based, human
[6] = system: cytomegalovirus (CMV); assay: Anti-CMV activity in HEL cells as summarised in text; format: cell-based
[7] = system: HCT116 p53 knockout cells; format: cell-based, human; conditions: read-out: GI50, p53KO, four days
[8] = system: canine kidney MDCK
[9] = system: feline kidney CRFK
[10] = system: green monkey kidney Vero
[11] = system: vesicular stomatitis virus (VSV); format: cell-based; conditions: human embryonic lung (HEL) fibroblast cell cultures
[12] = system: HeLa and HEL cell cultures
[13] = system: vesicular stomatitis virus (VSV); format: cell-based; conditions: read-out: anti-VSV activity; human cervix carcinoma HeLa cell cultures
[14] = system: cytomegalovirus (CMV) AD-169 strain; assay: Anti-CMV activity; format: cell-based; conditions: read-out: anti-CMV activity EC50, AD-169 strain
[15] = system: cytomegalovirus (CMV) Davis strain; assay: Anti-CMV activity; format: cell-based; conditions: read-out: anti-CMV activity EC50, Davis strain
[16] = read-out: GI50, PTX10, paclitaxel-resistant ovarian 1A9-PTX10, four days

Row | Molecule | GI50 [1] | IC50 [2] | GI50 [3] | GI50 [4] | GI50 [5, 16] | activity against cytomegalovirus (in words) ([6]; HEL cells) | GI50 [7] | minimum detectable morphology-altering (cytotoxic) concentration (MCC) [8] | minimum detectable morphology-altering (cytotoxic) concentration (MCC) [9] | minimum detectable morphology-altering (cytotoxic) concentration (MCC) [10] | anti-VSV activity (in words) [11] | toxicity observed [12] | EC50 [13] | EC50 [14] | activity against cytomegalovirus (in words) [6] | EC50 [15] | GI50 ([5]; Homo sapiens, 1A9/ptx-10, read-out: GI50, PTX10)
1 | 2-(4-n-Butyl-1,2,3-triazol-1H-yl)inosine [Compound 23] | 28.1 µM | > 250 µM | > 50 µM | 37 µM | > 50 µM | somewhat more pronounced | > 50 µM |  |  |  |  |  |  |  |  |  | 
2 | 2-[4-(4-Fluorophenyl)-1,2,3-triazol-1H-yl]inosine [Compound 24] | 31 µM |  | > 50 µM | 34 µM | > 50 µM |  | > 50 µM |  |  |  |  |  |  |  |  |  | 
3 | 2-[4-(4-Methoxyphenyl)-1,2,3-triazol-1H-yl]inosine [Compound 19] | 8.56 µM | > 230 µM | > 50 µM | 29.5 µM | > 50 µM |  | > 50 µM |  |  |  |  |  |  |  |  |  | 
4 | 2-[4-(4-Methylphenyl)-1,2,3-triazol-1H-yl]inosine [Compound 18] | 13.4 µM | ≥ 240 µM | > 50 µM | 38 µM | > 50 µM | marginal activity | > 50 µM |  |  |  |  |  |  |  |  |  | 
5 | 2-[4-(Ferrocenyl)-1,2,3-triazol-1H-yl]inosine [Compound 22] | 12.9 µM | 123 µM | > 50 µM | 29.7 µM | > 50 µM | marginal activity | > 50 µM |  |  |  |  |  |  |  |  |  | 
6 | 2-[4-(Hydroxymethyl)-1,2,3-triazol-1H-yl]inosine [Compound 20] | 3.53 µM |  | > 50 µM | 20.4 µM | > 50 µM |  | 42.6 µM |  |  |  |  |  |  |  |  |  | 
7 | 2-[4-(N-Phthalimidomethyl)-1,2,3-triazol-1H-yl]inosine [Compound 21] | 14.1 µM | > 200 µM | > 50 µM | 6.32 µM | > 50 µM |  | > 50 µM |  |  |  |  |  |  |  |  |  | 
8 | 6-(Morpholin-4-yl)-2-(4-phenyl-1,2,3-triazol-1H-yl)-9-(β-D-ribofuranosyl)purine [Compound 34] | 0.95 µM |  | 3.7 µM | 0.18 µM | 11.7 µM |  | 10.4 µM | 8.3 μM | 83 μM | 210 μM |  |  |  |  |  |  | 
9 | OC[C@H]1O[C@@H](n2cnc3c(O)nc(-n4cc(-c5ccccc5)nn4)nc32)[C@H](O)[C@@H]1O [Compound 17, 2-[4-(Phenyl)-1,2,3-triazol-1H-yl]inosine] | 4.76 µM |  | > 50 µM | 22.8 µM | > 50 µM |  | > 50 µM |  |  |  | could not be confirmed | 100 to 240 µM | 27 ± 2.4 µM |  |  |  | 
10 | OC[C@H]1O[C@@H](n2cnc3c(O)nc(-n4cc(-c5ccccc5)nn4)nc32)C[C@@H]1O [Compound 25, 2-[4-(Phenyl)-1,2,3-triazol-1H-yl]-2′-deoxyinosine] | 14.8 µM | 188 µM | > 50 µM | 31 µM | > 50 µM |  | > 50 µM |  |  |  |  |  |  | ≥ 250 µM | marginal activity | 158 µM | 
11 | COc1ccc(-c2cn(-c3nc(O)c4ncn([C@H]5C[C@H](O)[C@@H](CO)O5)c4n3)nn2)cc1 [Compound 26, 2-[4-(4-Methoxyphenyl)-1,2,3-triazol-1H-yl]-2′-deoxyinosine] | 15.7 µM |  | > 50 µM | 37.2 µM | > 50 µM |  | > 50 µM |  |  |  |  |  |  | > 240 µM |  | > 240 µM | 
12 | OCc1cn(-c2nc(O)c3ncn([C@H]4C[C@H](O)[C@@H](CO)O4)c3n2)nn1 [Compound 27, 2-[4-(Hydroxymethyl)-1,2,3-triazol-1H-yl]-2′-deoxyinosine] | 32.9 µM |  | > 50 µM | 49.4 µM | > 50 µM |  | > 50 µM |  |  |  |  |  |  | > 290 µM |  | > 290 µM | 
13 | O=C1c2ccccc2C(=O)N1Cc1cn(-c2nc(O)c3ncn([C@H]4C[C@H](O)[C@@H](CO)O4)c3n2)nn1 [Compound 28, 2-[4-(N-Phthalimidomethyl)-1,2,3-triazol-1H-yl]-2′-deoxyinosine] | 32.2 µM |  | > 50 µM | 49.6 µM | > 50 µM |  | > 50 µM |  |  |  |  |  |  | > 210 µM |  | > 210 µM | 
14 | OC[C@H]1O[C@@H](n2cnc3c(O)nc(-n4cc(-[c-]5cccc5)nn4)nc32)C[C@@H]1O.[Fe+2].c1cc[cH-]c1 [Compound 29, 2-[4-(Ferrocenyl)-1,2,3-triazol-1H-yl]-2′-deoxyinosine] | 18 µM | > 200 µM | > 50 µM | 41.6 µM | > 50 µM |  | > 50 µM |  |  |  |  |  |  | ≥ 200 µM |  | ≥ 200 µM | 
15 | CCCCc1cn(-c2nc(O)c3ncn([C@H]4C[C@H](O)[C@@H](CO)O4)c3n2)nn1 [Compound 30, 2-(4-n-Butyl-1,2,3-triazol-1H-yl)-2′-deoxyinosine] | 26.9 µM |  | > 50 µM | 46.1 µM | > 50 µM |  | > 50 µM |  |  |  |  |  |  | > 270 µM |  | > 270 µM | 
16 | OC[C@H]1O[C@@H](n2cnc3c(NCc4ccccc4)nc(-n4cc(-c5ccccc5)nn4)nc32)[C@H](O)[C@@H]1O [Compound 35, 6-(N-Benzyl)-2-[4-(phenyl)-1,2,3-triazol-1H-yl]adenosine] | 24.5 µM |  | 43.6 µM | 5 µM | > 50 µM |  | > 50 µM |  |  |  |  |  |  |  |  |  | 
17 | CC(=O)O[C@H]1C(=O)[C@@]2(C)[C@H]([C@H](OC(=O)c3ccccc3)[C@]3(O)C[C@H](OC(=O)[C@H](O)[C@@H](NC(=O)c4ccccc4)c4ccccc4)C(C)=C1C3(C)C)[C@]1(OC(C)=O)CO[C@@H]1C[C@@H]2O [paclitaxel, reference compound] |  |  |  |  |  |  |  |  |  |  |  |  |  |  |  |  | 0.079 µM
